Target: T1, HEK cells stably transfected with tetracycline inducible hNR1 and hNR2A (Homo sapiens, UniProt Q05586+Q12879)
T1 construct: expressed in transfected cells; host or cells: HEK cells, stably transfected, tetracycline/doxycycline inducible
Experiment: Assay 1: Cell-Based Assay, cytosolic calcium response to positive allosteric modulators (with 30 μM glycine and 300 nM L-glutamate, EC30)
Settings: Table 2; for EC50: cytosolic calcium response, with 30 μM glycine and 300 nM L-glutamate (EC30), — = no plateau was reached; for Max %: responses scaled relative to 100 μM L-glutamate maximal response (100%) and 0 μM L-glutamate (0%)
In short: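 Cells induced 24 h with 7.5 μg mL^−1 doxycycline plus 500 μM (+)-ketamine, loaded 60 min at 37 °C with calcium dye in Mg-free HBSS (1.8 mM Ca, probenecid, 10 μM (+)-ketamine, pH 7.15). Peak RFU over 5 min after compound addition, scaled to 100 μM L-glutamate (100%) and 0 μM (0%); four-parameter Hill fit for EC50, max % if no plateau.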

T1 sequence (Q12879 23-1464, other chains not shown): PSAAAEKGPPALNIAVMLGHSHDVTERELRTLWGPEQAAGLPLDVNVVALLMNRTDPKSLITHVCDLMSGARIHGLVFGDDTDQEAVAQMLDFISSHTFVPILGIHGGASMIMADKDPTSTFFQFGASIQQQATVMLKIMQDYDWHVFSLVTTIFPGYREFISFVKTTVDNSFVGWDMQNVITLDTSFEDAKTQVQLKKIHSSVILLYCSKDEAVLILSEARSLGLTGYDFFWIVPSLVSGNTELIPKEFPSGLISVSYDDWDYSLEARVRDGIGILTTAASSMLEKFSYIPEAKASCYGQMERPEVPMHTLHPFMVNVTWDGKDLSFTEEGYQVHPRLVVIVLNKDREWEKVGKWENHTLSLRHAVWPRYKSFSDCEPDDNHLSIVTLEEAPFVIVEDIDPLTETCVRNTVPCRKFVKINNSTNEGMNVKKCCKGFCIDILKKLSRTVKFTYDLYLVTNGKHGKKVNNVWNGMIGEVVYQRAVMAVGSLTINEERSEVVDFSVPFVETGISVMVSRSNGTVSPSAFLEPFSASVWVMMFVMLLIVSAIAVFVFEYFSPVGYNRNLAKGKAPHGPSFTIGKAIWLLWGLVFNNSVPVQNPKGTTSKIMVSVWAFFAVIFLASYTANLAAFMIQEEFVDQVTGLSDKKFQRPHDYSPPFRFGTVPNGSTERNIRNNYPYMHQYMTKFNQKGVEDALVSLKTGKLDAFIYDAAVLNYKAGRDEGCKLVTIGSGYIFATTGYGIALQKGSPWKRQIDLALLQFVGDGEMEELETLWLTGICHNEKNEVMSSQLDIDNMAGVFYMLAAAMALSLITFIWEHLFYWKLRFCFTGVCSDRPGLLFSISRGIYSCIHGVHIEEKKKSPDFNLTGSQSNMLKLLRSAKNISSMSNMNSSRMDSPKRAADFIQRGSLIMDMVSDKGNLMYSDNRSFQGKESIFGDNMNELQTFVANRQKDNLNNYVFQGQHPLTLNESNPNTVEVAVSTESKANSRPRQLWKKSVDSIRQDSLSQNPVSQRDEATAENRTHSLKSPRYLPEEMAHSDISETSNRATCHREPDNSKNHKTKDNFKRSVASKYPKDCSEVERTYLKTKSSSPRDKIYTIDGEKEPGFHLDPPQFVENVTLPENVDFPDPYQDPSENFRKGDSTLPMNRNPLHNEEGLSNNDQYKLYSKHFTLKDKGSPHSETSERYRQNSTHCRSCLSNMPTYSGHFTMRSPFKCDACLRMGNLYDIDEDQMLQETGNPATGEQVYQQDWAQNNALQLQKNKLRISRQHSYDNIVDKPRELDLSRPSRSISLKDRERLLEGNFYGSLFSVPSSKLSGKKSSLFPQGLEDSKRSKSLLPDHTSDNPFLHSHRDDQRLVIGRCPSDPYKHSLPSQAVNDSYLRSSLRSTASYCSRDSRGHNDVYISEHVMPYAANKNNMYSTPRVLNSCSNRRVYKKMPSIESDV

Row | SMILES | EC50 [µM] | Max % [%]
1 | CCN(Cc1cc(=O)n2c(N(C)C)c(C)sc2n1)c1ccc(F)cc1 [Example 6.2, 3-(dimethylamino)-7-((ethyl(4-fluorophenyl)amino)methyl)-2-methyl-5H-thiazolo[3,2-a]pyrimidin-5-one] | 5 | 121
2 | CCN(Cc1cc(=O)n2c(N3CCCC3)c(C)sc2n1)c1ccc(F)cc1 [Example 6.3, 7-((ethyl(4-fluorophenyl)amino)methyl)-2-methyl-3-(pyrrolidin-1-yl)-5H-thiazolo[3,2-a]pyrimidin-5-one] | 10.1 | 91.9
3 | CCN(Cc1cc(=O)n2c(C#N)c(C)sc2n1)c1ccc(F)c(F)c1 [Example 7.1, 7-(((3,4-difluorophenyl)(ethyl)amino)methyl)-2-methyl-5-oxo-5H-thiazolo[3,2-a]pyrimidine-3-carbonitrile] | 0.853 | 184
4 | CCN(Cc1cc(=O)n2c(C#N)c(C)sc2n1)c1cccc(F)c1 [Example 7.2, 7-((ethyl(3-fluorophenyl)amino)methyl)-2-methyl-5-oxo-5H-thiazolo[3,2-a]pyrimidine-3-carbonitrile] | 0.612 | 134
5 | CCN(Cc1cc(=O)n2c(C#N)c(C)sc2n1)c1ccc(F)cc1 [Example 7.3, 7-[(N-ethyl-4-fluoro-anilino)methyl]-2-methyl-5-oxo-thiazolo[3,2-a]pyrimidine-3-carbonitrile] | 0.376 | 156
6 | CCN(Cc1cc(=O)n2c(C#N)csc2n1)c1ccc(F)cc1 [Example 7.4, 7-[(N-ethyl-4-fluoro-anilino)methyl]-5-oxo-thiazolo[3,2-a]pyrimidine-3-carbonitrile] | 5.7 | 166
7 | Cc1sc2nc(CN3c4ccc(F)cc4CC3C)cc(=O)n2c1C#N (stereo not drawn) [Example 7.5, 7-((5-fluoro-2-methylindolin-1-yl)methyl)-2-methyl-5-oxo-5H-thiazolo[3,2-a]pyrimidine-3-carbonitrile] | 2.1 | 162
8 | CCN(Cc1cc(=O)n2c(C#N)c(C)sc2n1)c1cccc(C#N)c1 [Example 7.6, 7-(((3-cyanophenyl)(ethyl)amino)methyl)-2-methyl-5-oxo-5H-thiazolo[3,2-a]pyrimidine-3-carbonitrile] | 3.7 | 151
9 | CCN(Cc1cc(=O)n2c(C#N)c(C)sc2n1)c1ccccn1 [Example 7.7, 7-((ethyl(pyridin-2-yl)amino)methyl)-2-methyl-5-oxo-5H-thiazolo[3,2-a]pyrimidine-3-carbonitrile] | 21 | 148
10 | Cc1sc2nc(CN3c4ccccc4CC3C)cc(=O)n2c1C#N (stereo not drawn) [Example 7.8, 2-methyl-7-((2-methylindolin-1-yl)methyl)-5-oxo-5H-thiazolo[3,2-a]pyrimidine-3-carbonitrile] | 2.5 | 126
11 | CCN(Cc1cc(=O)n2c(C#N)c(C)sc2n1)c1cc(F)cc(F)c1 [Example 7.9, 7-(((3,5-difluorophenyl)(ethyl)amino)methyl)-2-methyl-5-oxo-5H-thiazolo[3,2-a]pyrimidine-3-carbonitrile] | 1.3 | 121
12 | CCN(Cc1cc(=O)n2c3c(sc2n1)CCC3)c1ccc(F)cc1 [Example 8.1, 6-[(N-ethyl-4-fluoro-anilino)methyl]-2,3-dihydro-1H-cyclopenta[3,4]thiazolo[1,4-a]pyrimidin-8-one] | 5.2 | 146
13 | CCN(Cc1cc(=O)n2c3c(sc2n1)CCCC3)c1ccc(F)cc1 [Example 8.2, 2-[(N-ethyl-4-fluoro-anilino)methyl]-6,7,8,9-tetrahydropyrimido[2,1-b][1,3]benzothiazol-4-one] | 7.2 | 122
14 | CCN(Cc1cc(=O)n2c3c(sc2n1)CCC3CO)c1ccc(F)cc1 (stereo not drawn) [Example 8.5, 6-[(N-ethyl-4-fluoro-anilino)methyl]-1-(hydroxymethyl)-2,3-dihydro-1H-cyclopenta[3,4]thiazolo[1,4-a]pyrimidin-8-one] | 16.9 | 114
15 | CCN(Cc1cc(=O)n2c3c(sc2n1)CCC31CCCC1)c1ccc(F)cc1 [Example 8.6, 6-[(N-ethyl-4-fluoro-anilino)methyl]spiro[2,3-dihydrocyclopenta[3,4]thiazolo[1,4-a]pyrimidine-1,1′-cyclopentane]-8-one] | – | 60.5
16 | CCN(Cc1cc(=O)n2c3c(sc2n1)CCC3=O)c1ccc(F)cc1 [Example 8.7, 6-[(N-ethyl-4-fluoro-anilino)methyl]-2,3-dihydrocyclopenta[3,4]thiazolo[1,4-a]pyrimidine-1,8-dione] | – | 81.4
17 | CCN(Cc1cc(=O)n2c3c(sc2n1)CCC3(C)C)c1ccc(F)cc1 [Example 8.8, 6-[(N-ethyl-4-fluoro-anilino)methyl]-1,1-dimethyl-2,3-dihydrocyclopenta[3,4]thiazolo[1,4-a]pyrimidin-8-one] | 8.7 | 108

Row | SMILES | EC50 [µM] | Max % [%]
18 | CCN(Cc1cc(=O)n2c3c(sc2n1)CCOC3)c1ccc(F)cc1 [Example 8.9, 2-[(N-ethyl-4-fluoro-anilino)methyl]-8,9-dihydro-6H-pyrano[3,4]thiazolo[1,4-a]pyrimidin-4-one] | 11.1 | 124
19 | CCN(Cc1cc(=O)n2c3c(sc2n1)CCN(C)C3)c1ccc(F)cc1 [Example 8.10, 2-[(N-ethyl-4-fluoro-anilino)methyl]-7-methyl-8,9-dihydro-6H-pyrido[3,4]thiazolo[1,4-a]pyrimidin-4-one] | 12.5 | 127
20 | CCN(Cc1cc(=O)n2c3c(sc2n1)CCC3C(N)=O)c1ccc(F)cc1 (stereo not drawn) [Example 8.11, 6-[(N-ethyl-4-fluoro-anilino)methyl]-8-oxo-2,3-dihydro-1H-cyclopenta[3,4]thiazolo[1,4-a]pyrimidine-1-carboxamide] | 2.7 | 154
21 | CCN(Cc1cc(=O)n2c3c(sc2n1)CCC3C#N)c1ccc(F)cc1 (stereo not drawn) [Example 8.12, 6-[(N-ethyl-4-fluoro-anilino)methyl]-8-oxo-2,3-dihydro-1H-cyclopenta[3,4]thiazolo[1,4-a]pyrimidine-1-carbonitrile] | 0.385 | 161
22 | CCN(Cc1cc(=O)n2c3c(sc2n1)CCC3CC#N)c1ccc(F)cc1 (stereo not drawn) [Example 8.13, 2-[6-[(N-ethyl-4-fluoro-anilino)methyl]-8-oxo-2,3-dihydro-1H-cyclopenta[3,4]thiazolo[1,4-a]pyrimidin-1-yl]acetonitrile] | 2.2 | 162
23 | CCN(Cc1cc(=O)n2c3c(sc2n1)CCC3CCO)c1ccc(F)cc1 (stereo not drawn) [Example 8.14, 6-[(N-ethyl-4-fluoro-anilino)methyl]-1-(2-hydroxyethyl)-2,3-dihydro-1H-cyclopenta[3,4]thiazolo[1,4-a]pyrimidin-8-one] | 1.1 | 154
24 | CCN(Cc1cc(=O)n2c3c(sc2n1)CCC3COC)c1ccc(F)cc1 (stereo not drawn) [Example 8.15, 2-((ethyl(4-fluorophenyl)amino)methyl)-6-(methoxymethyl)-7,8-dihydrocyclopenta[4,5]thiazolo[3,2-a]pyrimidin-4(6H)-one] | 2.3 | 138
25 | CCN(Cc1cc(=O)n2c3c(sc2n1)CCC3CC(N)=O)c1ccc(F)cc1 (stereo not drawn) [Example 8.16, 2-[6-[(N-ethyl-4-fluoro-anilino)methyl]-8-oxo-2,3-dihydro-1H-cyclopenta[3,4]thiazolo[1,4-a]pyrimidin-1-yl]acetamide] | 13 | 137
26 | CCN(Cc1cc(=O)n2c(C3CCCCC3)c(C)sc2n1)c1ccc(F)cc1 [Example 9.1, 3-cyclohexyl-7-[[ethyl(4-fluorophenyl)amino]methyl]-2-methyl-5H-[1,3]thiazolo[3,2-a]pyrimidin-5-one] | – | 48.1
27 | CCN(Cc1cc(=O)n2c(C(C)C)c(C)sc2n1)c1ccc(F)cc1 [Example 9.2, 7-[(N-ethyl-4-fluoro-anilino)methyl]-3-isopropyl-2-methyl-thiazolo[3,2-a]pyrimidin-5-one] | 2.9 | 117
28 | CCN(Cc1cc(=O)n2c(C3CCCC3)c(C)sc2n1)c1ccc(F)cc1 [Example 9.3, 3-cyclopentyl-7-[(N-ethyl-4-fluoro-anilino)methyl]-2-methyl-thiazolo[3,2-a]pyrimidin-5-one] | 7 | 108
29 | CCN(Cc1cc(=O)n2c(C3CCOCC3)c(C)sc2n1)c1ccc(F)cc1 [Example 9.4, 7-[(N-ethyl-4-fluoro-anilino)methyl]-2-methyl-3-tetrahydropyran-4-yl-thiazolo[3,2-a]pyrimidin-5-one] | 9.2 | 114
30 | CCN(Cc1cc(=O)n2c(C3CCC3)c(C)sc2n1)c1ccc(F)cc1 [Example 10.1, 3-cyclobutyl-7-[(N-ethyl-4-fluoro-anilino)methyl]-2-methyl-thiazolo[3,2-a]pyrimidin-5-one] | 4.4 | 130
31 | CCN(Cc1cc(=O)n2c(C(C)(C)C)c(C)sc2n1)c1ccc(F)cc1 [Example 10.2, 3-tert-butyl-7-[(N-ethyl-4-fluoro-anilino)methyl]-2-methyl-thiazolo[3,2-a]pyrimidin-5-one] | 5.3 | 110
32 | CCN(Cc1cc(=O)n2c(C(C)=O)c(C)sc2n1)c1ccc(F)cc1 [Example 10.3, 3-acetyl-7-[[ethyl(4-fluorophenyl)amino]methyl]-2-methyl-5H-[1,3]thiazolo[3,2-a]pyrimidin-5-one] | 0.535 | 177
33 | CCN(Cc1cc(=O)n2c(C(=O)NC)c(C)sc2n1)c1ccc(F)cc1 [Example 10.4, 7-[(N-ethyl-4-fluoro-anilino)methyl]-N,2-dimethyl-5-oxo-thiazolo[3,2-a]pyrimidine-3-carboxamide] | 0.593 | 186
